≈ marks a conversion by molar mass, not a printed value.

For series [1], the system named is Rhinovirus 1A. Briefly: Anti-rhinovirus activity, cytopathic effect inhibition / neutral red dye uptake, type 1A. It counts as cell-based. As to conditions: Table I, WI38 cells, 33° C., 3-4 days, NA = Not active; for EC50: Enterovirus, WI-38, read-out: MIC50 Rhinovirus 1A.
The test system of series [2] is WI38 cells. Kind of series: Toxicity to WI38 cells (change in morphology in / growth inhibition of 25% of the cells). It counts as cell-based.
Series [3] has as its system HRV-1A and HRV-39. Briefly: Anti-rhinovirus activity against HRV-1A and HRV-39. As to conditions: in words.
Series [4] has as its system Rhinovirus 39. Briefly: Anti-rhinovirus activity, cytopathic effect inhibition / neutral red dye uptake, type 39. It counts as cell-based. To be noted: Table I, WI38 cells, 33° C., 3-4 days; for EC50: Enterovirus, WI-38, read-out: MIC50 Rhinovirus 39.
The subject of series [5] is Polio 1. Briefly: microbe, parasite or virus in culture. It counts as cell-based. To be noted: Enterovirus, read-out: MIC 50 Polio 1.
The test system of series [6] is Rhinovirus 1B. Kind of series: Anti-rhinovirus activity, cytopathic effect inhibition / neutral red dye uptake, type 1B. It counts as cell-based. To be noted: Enterovirus, WI-38; Table II; one of seven commonest serotypes; read-out: MIC 50 Rhinovirus Type 1B.
Series [7] relates to Rhinovirus 36. Briefly: Anti-rhinovirus activity, cytopathic effect inhibition / neutral red dye uptake, type 36. As to conditions: Enterovirus, WI-38; Table II; read-out: MIC 50 Rhinovirus Type 36. It counts as cell-based.
Series [8] relates to Coxsacki-B1. Kind of series: Activity against other picornaviruses, Coxsacki-B1. It counts as cell-based. To be noted: Enterovirus, read-out: MIC 50 Cox. B1.
For series [9], the system named is Coxsacki-A21. Kind of series: Activity against other picornaviruses, Coxsacki-A21. It counts as cell-based. To be noted: Enterovirus, read-out: MIC 50 Cox. A21.
Series [10] relates to Rhinovirus 4. Kind of series: Anti-rhinovirus activity, cytopathic effect inhibition / neutral red dye uptake, type 4. It counts as cell-based. To be noted: Enterovirus, WI-38; Table II; one of seven commonest serotypes; read-out: MIC 50 Rhinovirus Type 4.
Series [11] deals with Echo-7. Kind of series: Activity against other picornaviruses, Echo-7. It counts as cell-based. To be noted: Enterovirus, read-out: MIC 50 Echo 7.
The test system of series [12] is Rhinovirus 17. Kind of series: Anti-rhinovirus activity, cytopathic effect inhibition / neutral red dye uptake, type 17. It counts as cell-based. As to conditions: Enterovirus, WI-38; Table II; read-out: MIC 50 Rhinovirus Type 17.
For series [13], the system named is Rhinovirus 31. Kind of series: Anti-rhinovirus activity, cytopathic effect inhibition / neutral red dye uptake, type 31. It counts as cell-based. As to conditions: Enterovirus, WI-38; Table II; one of seven commonest serotypes; read-out: MIC 50 Rhinovirus Type 31.
Series [14] relates to Rhinovirus 15. Briefly: Anti-rhinovirus activity, cytopathic effect inhibition / neutral red dye uptake, type 15. It counts as cell-based. As to conditions: Enterovirus, WI-38; Table II; one of seven commonest serotypes; read-out: MIC 50 Rhinovirus Type 15.
Series [15] concerns Echo-11. Briefly: Activity against other picornaviruses, Echo-11. As to conditions: Enterovirus, read-out: MIC 50 Echo 11. It counts as cell-based.
The subject of series [16] is 20 serotypes of rhinovirus. Briefly: Anti-rhinovirus activity against a panel of 20 serotypes. To be noted: Table II; numerator; denominator 20, but 10 for compound 8 and 6 for compound 30.
Series [17] deals with Enterovirus serotypes. It counts as cell-based. As to conditions: Table III; numerator; denominator 7, but 5 for compound 8.
Series [18] concerns Rhinovirus 86. Kind of series: Anti-rhinovirus activity, cytopathic effect inhibition / neutral red dye uptake, type 86. It counts as cell-based. To be noted: Enterovirus, WI-38; Table II; read-out: MIC 50 Rhinovirus Type 86.
The subject of series [19] is Rhinovirus 29. Kind of series: Anti-rhinovirus activity, cytopathic effect inhibition / neutral red dye uptake, type 29. As to conditions: Enterovirus, WI-38; Table II; one of seven commonest serotypes; read-out: MIC 50 Rhinovirus Type 29. It counts as cell-based.
The mark [20] stands for this setting: Table I, concentration with change in morphology in 25% of WI38 cells.

As to `Cc1cc(CCCCCCCOc2ccc3ccccc3c2)on1` [Compound 13, 5-[7-(2-naphthyl)oxyheptyl]-3-methylisoxazole], the EC50 worked out at 25 µg/mL (≈ 77.3 µM) in series [1] and 10 µg/mL (≈ 30.9 µM) in series [4]. The molecule further gave a Toxicity in [2] (setting [20]) of 50 µg/mL. Also, the “inhibitory activity against HRV-1A and HRV-39 in vitro” value (“inhibitory activity” for short) in series [3] is “remarkably inhibitory activity”.
With `Cc1cc(CCCCCCCOc2nc3ccccc3[nH]2)on1` [Compound 11, 5-[7-(benzimidazol-2-yl)oxyheptyl]-3-methylisoxazole], the EC50 in [1] worked out at 25 µg/mL (≈ 79.8 µM); in series [4], 10 µg/mL (≈ 31.9 µM). Moreover, the Toxicity in series [2] (setting [20]) worked out at 50 µg/mL.
For the molecule `Cc1cc(CCCCCCCOc2ccc(-n3cncn3)cc2)on1` [Compound 3, 5-{7-[4-(1,2,4-triazol-1-yl)phenoxy]heptyl}-3-methylisoxazole], the EC50 in series [1] and in series [4] was 50 µg/mL (≈ 147 µM) in each case. In series [2] (setting [20]), the Toxicity came out at 750 µg/mL. Moreover, in [3], the “inhibitory activity” value is “remarkably inhibitory activity”.
Turning to `c1ccc(-n2nccc2CCCCCCOc2ccc3ccccc3c2)cc1` [Compound 32, 5-[6-(2-naphthyl)-oxyhexyl]-1-phenylpyrazole], the EC50 in series [1] and in series [4] was 25 µg/mL (≈ 67.5 µM) throughout. The molecule also displayed a Toxicity in [2] (setting [20]) of 50 µg/mL. Also, the “inhibitory activity” value in series [3] is “remarkably inhibitory activity”.
On to `Cc1cnsc1CCCCCCOc1cccc2ccccc12`, for which the “inhibitory activity” value in series [3] is on record as “remarkably inhibitory activity”.
In the case of `Cc1cc(CCCCCCCOc2cc(C)c3ccccc3n2)on1` [Compound 10, 5-[7-(4-methylquinolin-2-yl)oxyheptyl]-3-methylisoxazole], the EC50 in series [1] and in series [4] was 25 µg/mL (≈ 73.9 µM) in each case. The Toxicity in series [2] (setting [20]) was 50 µg/mL.
As to `Cc1cc(CCCCCCCOc2ccc3c(c2)[nH]c2ccccc23)on1` [Compound 8, 5-[7-(carbazol-2-yl)oxyheptyl]-3-methylisoxazole], the EC50 in series [5] was more than 25 µg/mL; in series [7], more than 25 µg/mL; in series [13], 1 µg/mL (≈ 2.76 µM); in [1], 10 µg/mL (≈ 27.6 µM); in [4], 10 µg/mL (≈ 27.6 µM); in series [18], more than 25 µg/mL. In addition, the IC50 is 5 µg/mL (≈ 13.8 µM) in series [6]; more than 25 µg/mL in [8]; more than 25 µg/mL in series [9]; more than 25 µg/mL in [10]; more than 25 µg/mL in [11]; more than 25 µg/mL in series [12]. Besides, the IC50 in [14], in series [15] and in series [19] was more than 25 µg/mL throughout. Moreover, the Toxicity in series [2] (setting [20]), in series [2] (Table II) and in series [2] (Table III) was 25 µg/mL in each case. Moreover, in [3], the “inhibitory activity” value was “remarkably inhibitory activity”. In series [16], the “All Rhinovirus Serotypes (number of serotypes active / tested)” value was found to be 4. Also, the “All Enterovirus Serotypes (number of serotypes active / tested)” value in series [17] was found to be 0.
As for `c1ccc(-n2nccc2CCCCCCOc2cccc3ccccc23)cc1` [Compound 33, 5-[6-(1-naphthyl)oxyhexyl]-1-phenylpyrazole], the “inhibitory activity” value in series [3] is reported as “remarkably inhibitory activity”.
On to `c1ccc(-n2nccc2CCCCCCOc2ccc3oc4ccccc4c3c2)cc1` [Compound 30], for which the IC50 worked out at 10 µg/mL (≈ 24.4 µM) in [6], 10 µg/mL (≈ 24.4 µM) in [10] and 5 µg/mL (≈ 12.2 µM) in [14]. Also, the EC50 was more than 25 µg/mL in series [13], 10 µg/mL (≈ 24.4 µM) in [1] and 5 µg/mL (≈ 12.2 µM) in [4]. The Toxicity in [2] (setting [20]) and in series [2] (Table II) was more than 50 µg/mL throughout. The “inhibitory activity” value in [3] was “remarkably inhibitory activity”. In series [16], the “All Rhinovirus Serotypes (number of serotypes active / tested)” value amounted to 5.
Regarding `Cc1cc(CCCCCCCON2C(=O)COc3c2ccc2ccccc32)on1` [Compound 6, 5-[7-(2,3-dihydro-3-oxo-4H-napth[1,2-b]-1,4-oxazin-4-yl)oxyheptyl]-3-methylisoxazole], the EC50 in [1] and in [4] was 50 µg/mL (≈ 127 µM) in each case. In [2] (setting [20]), this molecule had a Toxicity of more than 50 µg/mL. The “inhibitory activity” value in series [3] is “remarkably inhibitory activity”.
On to `Cc1cc(OCCCCCCc2c(Cl)cnn2-c2ccccc2)c2ccccc2n1` [Compound 35, 4-chloro-5-[6-(2-methylqinolin-4-yl)oxyhexyl]phenylpyrazole], for which the “inhibitory activity” value in [3] is on record as “remarkably inhibitory activity”.
Take “5-[7-(fluoren-9-yl)oxyheptyl]-3-methylthiazole”: the “inhibitory activity” value in series [3] is “remarkably inhibitory activity”.
As to `Cc1cc(CCCCCCCOc2cccc3ccccc23)on1` [Compound 14, 5-[7-(1-naphthyl)oxyheptyl]-3-methylisoxazole], the EC50 in series [1] and in series [4] was 25 µg/mL (≈ 77.3 µM) each time. Further, the Toxicity in series [2] (setting [20]) is more than 50 µg/mL. Further, in series [3], the “inhibitory activity” value is “remarkably inhibitory activity”.
Take “5-[7-(2-Naphthyl)oxyheptyl]-3-methylthiazole [Compound 18]”: the “MIC50 Rhinovirus 1A” value in series [1] amounted to 25 µg/mL. Moreover, the Toxicity in [2] (setting [20]) is more than 50 µg/mL. For the same molecule, the “MIC50 Rhinovirus 39” value in series [4] came out at 25 µg/mL.
For `Cc1cc(OCCCCCCc2ccnn2-c2ccccc2)c2ccccc2n1` [Compound 31, 5-[6-(2-methylquinolin-4-yl)oxyhexyl]-1-phenylpyrazole], the EC50 in series [1] and in [4] was 10 µg/mL (≈ 25.9 µM) throughout. In addition, the Toxicity in series [2] (setting [20]) came to 25 µg/mL. In addition, the “inhibitory activity” value in series [3] is on record as “remarkably inhibitory activity”.
`Cc1cc(CCCCCCCOC23CC4CC(CC(C4)C2)C3)on1` [Compound 12, 5-[7-(Adamantanol-1-yl)oxyheptyl]-3-methylisoxazole]: the EC50 came out at 25 µg/mL (≈ 75.4 µM) in series [1] and 10 µg/mL (≈ 30.2 µM) in [4]. The same molecule displayed a Toxicity in [2] (setting [20]) of 50 µg/mL.
The like results for `Cc1cnsc1CCCCCCOc1ccc2ccccc2c1` [Compound 21, 5-[6-(2-napthyl)oxyhexyl]-4-methylisothiazole] were, in that order, 25 µg/mL (≈ 76.8 µM), 10 µg/mL (≈ 30.7 µM) and 50 µg/mL.
`Cc1csc(CCCCCCCOc2cc(C)nc3ccccc23)n1` [Compound 16] displayed a Toxicity in series [2] (setting [20]) of 25 µg/mL. In addition, the “inhibitory activity” value in [3] is “remarkably inhibitory activity”. For the same molecule, the EC50 in series [4] was found to be 5 µg/mL (≈ 14.1 µM).
Consider `Cc1cc(OCCCCCCc2ccns2)c2ccccc2n1` [Compound 26, 5-[6-(2-methylquinoline-4-yl)oxyhexyl]isothiazole], for which the “inhibitory activity” value in series [3] is given as “remarkably inhibitory activity”.
As for `Cc1cnsc1CCCCCCOc1cccc2ccccc12` [Compound 22, 5-[6-(1-napthyl)oxyhexyl]-4-methylisothiazole], the EC50 in [1] and in series [4] was 25 µg/mL (≈ 76.8 µM) throughout. This molecule yielded a Toxicity in [2] (setting [20]) of more than 50 µg/mL.
Molecule `Cc1cc(CCCCCCCOC2c3ccccc3-c3ccccc32)on1` [Compound 29, 5-[7-(fluorene-9-yloxy)-heptyl]-3-methylisoxazole] came in with a Toxicity in series [2] (setting [20]) of more than 50 µg/mL. For the same molecule, the EC50 in series [4] came out at 25 µg/mL (≈ 69.2 µM).
On to `Cc1cc(OCCCCCCc2sncc2C)c2ccccc2n1` [Compound 20, 5-[6-(2-methylquinolin-4-yl)oxyhexyl]-4-methylisothiazole], for which the “inhibitory activity” value in [3] was “remarkably inhibitory activity”.
